Data set [1] is described as follows: LAP Rat PK study, SQ and IM injections (IV values given for reference). The note with it: in vivo, Sprague-Dawley rats; for Cmax / Tmax / half-life: n=3. The method, then: Injections were made in Sprague-Dawley rats SQ and IM at 5 and 20 mg/kg doses with T1/2, Cmax, Tmax, and AUC being measured.
The nature of data set [2]: LAP Dog PK study, SQ and IM injections (IV values given for reference). As to conditions: in vivo, dose 5 mg/kg, Beagle dogs. The method, then: Injections were also made in Beagle dogs SQ and IM at 5 and 20 mg/kg doses with T1/2, Cmax, Tmax, and AUC measured.
Data set [3] has as its system HIV. Put plainly: human protein adjusted IC90 (reference line in FIG. 1 and FIG. 2). In kind it is cell-based.
The nature of data set [4]: LAP Rat PK study, SQ and IM injections (IV values given for reference). The note with it: Sprague-Dawley, in vivo, rat (FIG. 1). Also noted: species or system Sprague-Dawley rats.
A short description of data set [5]: LAP Dog PK study, SQ and IM injections (IV values given for reference). Also noted: species or system Beagle dogs. As to conditions: in vivo.
For data set [6], the system named is HIV. As to conditions: cited from earlier work.
Where [7] appears, read: dog, sc, SQ, dose 2.5 mg/kg, Beagle dogs, n=3.
Where [8] appears, read: dog, IM, dose 2.5 mg/kg, Beagle dogs, n=3.

In the case of `CC(C)C1=C2[C@H]3CC[C@@H]4[C@@]5(C)CC[C@H](OC(=O)CC(C)(C)C(=O)O)C(C)(C)[C@@H]5CC[C@@]4(C)[C@]3(C)CC[C@@]2([C@@H](O)CN(CCN(C)C)Cc2ccc(Cl)cc2)CC1=O` [compound of Formula I, 4-(((3aR,5aR,5bR,7aR,9S,11aR,11bR,13aS)-3a-((R)-2-((4-Chlorobenzyl)(2-(dimethylamino)ethyl)amino)-1-hydroxyethyl)-1-isopropyl-5a,5b,8,8,11a-pentamethyl-2-oxo-3,3a,4,5,5a,5b,6,7,7a,8,9,10,11,11a,11b,12,13,13a-octadecahydro-2H-cyclopenta[a]chrysen-9-yl)oxy)-2,2-dimethyl-4-oxobutanoic acid], the highest concentration (Cmax) in data set [1] (IM, dose 5 mg/kg) worked out at 100 ± 7.8 ng/mL; in data set [1] (IM, dose 20 mg/kg), 178 ± 56.9 ng/mL; in data set [1] (sc, SQ, dose 5 mg/kg), 170 ± 9.2 ng/mL; in data set [1] (sc, SQ, dose 20 mg/kg) it was 285 ± 48.4 ng/mL; in data set [2] (IM, n=3), 69.7 ± 7.2 ng/mL; in data set [2] (sc, SQ, n=3), 59 ± 14.5 ng/mL. Moreover, the Cmax in data set [5] (setting [7]) is 38 ± 11 ng/mL; in data set [5] (setting [8]), 59.3 ± 23.2 ng/mL. Moreover, the Tmax in data set [1] (IM, dose 5 mg/kg) was found to be 5.3 ± 2.3 h; in data set [1] (IM, dose 20 mg/kg) it was 8 ± 4 h; in data set [1] (sc, SQ, dose 5 mg/kg) it was 6.7 ± 2.3 h; in data set [1] (sc, SQ, dose 20 mg/kg), 6.7 ± 2.3 h; in data set [2] (sc, SQ, n=3), 208 ± 55.4 h; in data set [5] (setting [7]) it was 144 h. Further, the time to peak (Tmax) in data set [5] (setting [8]) stood at 80 ± 13.9 h; in data set [5] (dog, IM, dose 5 mg/kg, Beagle dogs, n=3) it was 128 ± 27.7 h. Further, the half-life was 149 h in data set [1] (IM, dose 5 mg/kg); 298 h in data set [1] (IM, dose 20 mg/kg); 120 h in data set [1] (sc, SQ, dose 5 mg/kg); 463 h in data set [1] (sc, SQ, dose 20 mg/kg); 118 h in data set [2] (IM, n=3); 127 h in data set [2] (sc, SQ, n=3). The half-life in data set [4] (read-out: T1/2 IV (converted)) is 3.4 h; in data set [5] (Beagle, IV, dog (FIG. 2), read-out: T1/2 IV (converted)) it was 6.9 h; in data set [5] (dog, sc, SQ, dose 2.5 mg/kg, Beagle dogs, n=3, read-out: T1/2 (converted)) it was 96 h; in data set [5] (dog, IM, dose 2.5 mg/kg, Beagle dogs, n=3, read-out: T1/2 (converted)) it was 72 h. For the same compound, the AUC(0-t) came out at 7700 ng·h/mL in data set [1] (IM, dose 5 mg/kg, t printed as '= days' (no number)); 24900 ng·h/mL in data set [1] (IM, dose 20 mg/kg, t = 42 days); 8000 ng·h/mL in data set [1] (sc, SQ, dose 5 mg/kg, t = 24 days); 23900 ng·h/mL in data set [1] (sc, SQ, dose 20 mg/kg, t = 57 days); 16200 ng·h/mL in data set [2] (IM, t = 36 days); 17400 ng·h/mL in data set [2] (sc, SQ, t = 40 days). Further, the AUC(0-t) in data set [4] (read-out: AUC0-24 IV) stood at 2960 ng·h/mL; in data set [5] (Beagle, IV, dog (FIG. 2), read-out: AUC0-24 IV) it was 4150 ng·h/mL; in data set [5] (dog, sc, SQ, dose 2.5 mg/kg, Beagle dogs, t = 22 days, read-out: AUC0-t) it was 7900 ng·h/mL; in data set [5] (dog, IM, dose 2.5 mg/kg, Beagle dogs, t = 17 days, read-out: AUC0-t), 8600 ng·h/mL. In the data set with HIV [3], the “human protein adjusted IC90” value is reported as 4.31 ng/mL.
Turning to `C=C(C)[C@@H]1CC[C@]2(C(=O)O)CC[C@]3(C)[C@H](CC[C@@H]4[C@@]5(C)CC[C@H](OC(=O)CC(C)(C)C(=O)O)C(C)(C)[C@@H]5CC[C@]43C)[C@@H]12` [Bevirimat], the “reduced HIV viral load by a mean of” value with HIV [6] (patients with trough levels >=20 μg/mL and without key baseline Gag polymorphisms at Q369, V370 or T371) is reported as 1.3 log10/mL. Besides, the “HIV viral load reduction versus patients without Gag polymorphisms” value with HIV [6] (users with Gag polymorphisms at Q369, V370 or T371) was “significantly lower load reductions”.

The term Cmax denotes the highest concentration seen after dosing. The term Tmax denotes the time at which the peak concentration occurs.

Source of the values: US9795619B2, “Pharmaceutical compositions” (priority 2012, dated 2017).
